Consider 9 molecules from patent publication USRE47493E1, “Substituted bicyclic dihydropyrimidinones and their use as inhibitors of neutrophil elastase activity” (Boehringer Ingelheim International GmbH, priority 2014, dated 2019).

Data set [1] is described as follows: Assay for Determination of Aqueous Solubility. The note with it: McIlvaine buffer pH 6.8, 2.5% DMSO; for Aqueous solubility: 24 h; for solubility at 24 h: McIlvaine buffer pH 6.8 with 2.5% DMSO, aqueous buffer, kinetic from dmso stock. The class given is physicochemical. The protocol: Assay for Determination of Aqueous Solubility
The aqueous solubility of a compound is determined by comparing the amount dissolved in aqueous buffer (containing 2.5% DMSO) to the amount dissolved in an acetonitrile/water (1/1) solution. Starting from a 10 mM DMSO stock solution, aliquots are diluted with acetonitrile/water (1/1) and Mcllvaine buffer pH 6.8, respectively. After 24 h of shaking, the solutions or suspensions are filtered and analyzed by LC-UV. The amount dissolved in buffer is compared to the amount dissolved in the acetonitrile/water (1/1) solution. Solubility is measured from 0.001 to 0.125 mg/ml at a DMSO concentration of 2.5%. If more than 90% of the compound is dissolved in buffer, the value is marked with “>”.

Data set [2] can be described thus: Assay for the Determination of Metabolic Stability with Human Liver Microsomes. It counts as in vitro ADME. Particulars: pooled human liver microsomes, 37° C., NADPH; for half-life at 1 nM: pH 7.6, read-out: t1/2 INVITRO. As for the experimental part:
Assay for the Determination of Metabolic Stability with Human Liver Microsomes
The metabolic degradation of the test compound is assayed at 37° C. with pooled human liver microsomes. The final incubation volume of […] per time point contains TRIS buffer pH 7.6 (0.1 M), magnesium chloride (5 mM), microsomal protein (1 mg/ml) and the test compound at a final concentration of […]. Following a short preincubation period at 37° C., the reactions are initiated by addition of beta-nicotinamide adenine dinucleotide phosphate, reduced form (NADPH, 1 mM) and terminated by transfering an aliquot into acetonitrile after different time points. Additionally, the NADPH-independent degradation is monitored in incubations without NADPH, terminated at the last time point. The rol remaining test compound after NADPH independent incubation is reflected by the parameter c(control) (metabolic stability). The quenched incubations are pelleted by centrifugation (10′000 g, 5 min) An aliquot of the supernatant is assayed by LC-MS/MS for the amount of parent compound.
The half-life (t1/2 INVITRO) is determined by the slope of the semilogarithmic plot of the concentration-time profile. The intrinsic clearance (CL_[…]) is calculated by considering the amount of protein in the incubation: CL_[…][μl/min/mg protein]=(ln 2/(half-life [min]*protein content [mg/ml]))*1′000.
The half-life (t1/2 INVITRO) values of selected compounds in the metabolic stability assay described above are listed in Table 15.
In general terms: Liver microsomes are vesicles of endoplasmic reticulum, rich in cytochrome P450 enzymes.

The nature of data set [3]: Assay for the Determination of Metabolic Stability with Human Hepatocytes. The class given is in vitro ADME. Particulars: scaled with well stirred model. As for the experimental part: Assay for the Determination of Metabolic Stability with Human Hepatocytes
The metabolic degradation of the test compound is assayed in a human hepatocyte suspension. Human hepatocytes (typically cryopreserved) are incubated in an appropriate buffer system (e.g. Dulbecco's modified eagle medium plus 3.5 μg glucagon/500 mL, 2.5 mg insulin/500 mL and 3.75 mg/500 mL hydrocortison) containing 5% species serum. Following a (typically) […] preincubation in an incubator (37° C., 10% CO2), 5 μl of test compound solution (80 μM; from 2 mM stock solution in DMSO diluted 1:25 with medium) are added into 395 μl hepatocyte suspension (cell density in the range 0.25-5*10^6 cells/mL, typically 1*10^6 cells/mL; final concentration of test compound 1 μM, final DMSO concentration […]). The cells are incubated for six hours (incubator, orbital shaker) and samples (25 μl) are taken at 0, 0.5, 1, 2, 4 and 6 hours. Samples are transferred into acetonitrile and pelleted by centrifugation (5 min). The supernatant is transferred to a new 96-deepwell plate, evaporated under nitrogen and resuspended. The decline of parent compound is analyzed by LC-MS/MS.
The intrinsic clearance CL_[…] is calculated as follows: CL_[…]=Dose/AUC=(C0/CD)/(AUD+clast/k)*1′000/60 (C0: initial concentration in the incubation [μM], CD: cell density of vital cells [10^6 cells/mL], AUD: area under the data [μM*h], clast: concentration of last data point [μM], k: slope of the regression line for parent decline [h^−1])
The calculated in vitro hepatic intrinsic clearance can be scaled up to the intrinsic in vivo hepatic clearance and used to predict hepatic in vivo blood clearance (CL) by the use of a is liver model (well stirred model): CL_[…]_INVIVO [ml/min/kg]=(CL_[…] [μL/min/10^6 cells]* hepatocellularity[10^6 cells/g liver]*liver factor[g/kg bodyweight])/1′000 CL[ml/min/kg]=CL_[…]_INVIVO [ml/min/kg]*hepatic blood flow [ml/min/kg]/(CL_[…]_INVIVO [ml/min/kg]+hepatic blood flow [ml/min/kg]) Qh[%]=CL[ml/min/kg]/hepatic blood flow[ml/min/kg]) (Hepatocellularity, human: 120*10^6 cells/g liver; lver factor, human: 25.7 g/kg bodyweight; blood flow, human: 21 ml/(min*kg))
The predicted human hepatic in vivo blood clearance (CL) of selected compounds in the metabolic stability assay described above are listed in Table 16.

Data set [4] in a line: Assay for Determination of Drug Transport Across Human CACO-2 Cells. It counts as in vitro ADME. Particulars: human; for efflux ratio at 2 h, 10 nM: pH 7.2, Caco-2, PEBA/PEAB; for Papp A→B at 10 nM: Caco-2, apical-to-basal, read-out: PEAB; for Papp A→B at 10 nM / Papp B→A at 10 nM: pH 7.2, 37° C.; for Papp B→A at 10 nM: Caco-2, basal-to-apical, read-out: PEBA. An excerpt: (§1) Assay for Determination of Drug Transport Across Human CACO-2 Cells
(§2) The assay provides information on the potential of a compound to pass the cell membrane, on the extent of oral absorption as well as on whether the compound is actively transported by uptake and/or efflux transporters. For the measurement of permeability across polarized, confluent human cancer colon carcinoma cells 2 (Caco-2) cell monolayers grown on permeable filter supports are used as the in vitro absorption model. Apparent permeability coefficients (PE) of the compounds across the Caco-2 monolayers are measured (pH 7.2, 37° C.) in apical-to-basal (AB) (absorptive) and basal-to-apical (BA) (secretory) transport direction. AB permeability (PEAB) represents drug absorption from the intestine into the blood and BA permeability (PEBA) drug secretion from the blood back into the intestine via both passive permeability as well as active transport mechanisms mediated by efflux and uptake transporters that are expressed on the Caco-2 cells. The compounds are assigned to permeability/absorption classes by comparison of the AB permeabilities with the AB permeabilities of reference compounds with known in vitro permeability and oral absorption in the human. Identical or similar permeabilities in both transport directions indicate passive permeation, vectorial permeability points to additional active transport mechanisms. […] Active transport is concentration-dependently saturable.
(§3) Caco-2 cells (1−2*10^5 cells/cm^2 area) are seeded on filter inserts (Costar transwell polycarbonate or PET filters, […] pore size) and cultured (DMEM) for 10 to 25 days. Compounds are dissolved in appropriate solvent (like DMSO, 1-20 mM stock solutions). Stock solutions are diluted with HTP-4 buffer (128.13 mM NaCl, 5.36 mM KCl, 1 mM MgSO4, 1.8 mM CaCl2, 4.17 mM NaHCO3, 1.19 mM Na2HPO4×7H2O, 0.41 mM NaH2PO4×H2O, 15 mM HEPES, 20 mM glucose, pH 7.2) to prepare the transport solutions (typically […] compound, final DMSO <=0.5%). The transport solution (TL) is applied to the apical or basolateral donor side for measuring A-B or B-A permeability (3 filter replicates), respectively. The receiver side contains HTP-4 buffer supplemented with 2% BSA. Samples are collected at the start and end of experiment from the donor and at various time intervals for up to 2 hours also from the receiver side for concentration measurement by LC-MS/MS or scintillation counting. Sampled receiver volumes are is replaced with fresh receiver solution.
(§4) The apparent permeability coefficients (PEAB and PEBA) and efflux ratios (PEBA/PEAB) of selected compounds in the Caco-2 drug transport assay described above are listed in Table 17.
On the technique in general: Caco-2 cells form a polarised layer with tight junctions and transporters.

In data set [5] the test system is Caco-2 cell monolayers. The description is as above. It counts as in vitro ADME.
From the text: as §1, §2, §3, §4

In data set [6] the target is Human neutrophil elastase (Homo sapiens (Human), UniProt P08246). As to the kind of experiment: Human Neutrophil Elastase Assay. Particulars: human neutrophil elastase, substrate MeOSuc-Ala-Ala-Pro-Val-AMC, pH 7.5; read-out: IC50. It counts as biochemical. As for the experimental part:
Human Neutrophil Elastase Assay
Materials: Human neutrophil elastase was purchased from Calbiochem (Cat.No.: 324681) and the elastase substrate MeOSuc-Ala-Ala-Pro-Val-AMC from Bachem (Cat.No.: I-1270). All other materials were of the highest grade commercially available.
The following buffers were used: Compound buffer: 100 mM Tris, 500 mM NaCl, adjusted to pH 7.5; Assay buffer: 100 mM Tris, 500 mM NaCl, adjusted to pH 7.5, containing 0.01% BSA.
Assay conditions: Test compounds were prediluted in DMSO and subsequently in compound buffer (5% DMSO final). 5 μL of these compound dilutions were mixed with 10 μl Neutrophil elastase (9 ng/ml in assay buffer) in a black 384 well OptiPlate (Perkin Elmer, Cat No.: 6007270) and incubated for 15 min at room temperature. Subsequently 10 μL substrate solution in assay buffer were added (250 nM final concentration) and the plates were incubated for 60 min at room temperature. After inactivation of the enzyme, fluorescence intensities were measured at 380 nm excitation and 460 nm emission wavelengths.
Each plate contains wells with a high value control (DMSO+enzyme+substrate) and wells with a low value control (DMSO+inactivated enzyme+substrate). IC50 values were estimated using a sigmoidal concentration response curve with variable slope. Means of low values were taken as 0%, means of high values as 100%.

The structures appear in SMILES notation. Converted amounts (≈) assume the structure as drawn. Bounds are passed on as bounds.

Chain of Human neutrophil elastase (P08246 30-267): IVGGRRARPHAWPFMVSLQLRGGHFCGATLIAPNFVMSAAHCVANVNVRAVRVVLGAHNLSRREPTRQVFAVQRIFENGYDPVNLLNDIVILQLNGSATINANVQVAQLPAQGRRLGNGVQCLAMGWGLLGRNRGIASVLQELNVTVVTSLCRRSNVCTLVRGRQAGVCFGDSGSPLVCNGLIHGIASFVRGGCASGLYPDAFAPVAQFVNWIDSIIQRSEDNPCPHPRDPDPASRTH

Take `N#Cc1ccc(C2C3=C(CCCC3=O)N(c3cccc(C(F)(F)F)c3)C(=O)N2C(=O)NCCO)cc1` (centres unmarked) [Example 39.3]: in data set [1], the Aqueous solubility (as a rule, the concentration that dissolves in the medium under given conditions) came to 6 µg/mL. For the same molecule, the “t1/2 INVITRO” value in data set [2] is above 2.17 h.

On to `CS(=O)(=O)CCNC(=O)N1C(=O)N(c2cccc(C(F)(F)F)c2)C2=C(C(=O)CCC2)C1c1ccc(C#N)cc1` (centres unmarked) [Example 39.19], for which the Aqueous solubility in data set [1] amounted to 9 µg/mL. Further, in data set [2], the “t1/2 INVITRO” value is above 2.17 h. In data set [3], the “CL (predicted human hepatic in vivo blood clearance)” value is 0 mL/min/kg.

As to `CN1C(=O)N(c2cccc(C(F)(F)F)c2)C2=C(C(=O)CCC2)[C@H]1c1ccc(C#N)cc1S(C)(=O)=O` [Example 48, (S)-4-(3-Methyl-2,5-dioxo-1-(3-(trifluoromethyl)phenyl)-1,2,3,4,5,6,7,8-octahydroquinazolin-4-yl)-3-(methylsulfonyl)benzonitrile], in data set [4], the efflux ratio – broadly, a quotient of directional permeabilities that is used to spot active efflux – at 2 h, 10 nM amounted to 1.6; the Papp A→B at 10 nM turned out to be 60 ×10⁻⁶ cm/s; the Papp B→A at 10 nM amounted to 98 ×10⁻⁶ cm/s. For the same molecule, in data set [2], the half-life at 1 nM is above 2.17 h. For the same molecule, the “CL (predicted human hepatic in vivo blood clearance)” value in data set [3] is 3 mL/min/kg.

On to `CN1C(=O)N(c2ccnc(C(F)(F)F)c2)C2=C(C(=O)CCC2)C1c1ccc(C#N)cc1S(C)(=O)=O` (centres unmarked) [Example 64, 4-(3-Methyl-2,5-dioxo-1-(2-(trifluoromethyl)pyridin-4-yl)-1,2,3,4,5,6,7,8-octahydroquinazolin-4-yl)-3-(methylsulfonyl)benzonitrile], for which, in data set [1], the solubility – broadly, how much of the substance goes into solution per volume – at 24 h came out at 8 µg/mL (≈ 15.9 µM). In addition, in data set [4], the efflux ratio at 2 h, 10 nM came to 4.4; the Papp A→B at 10 nM is 17.1 ×10⁻⁶ cm/s; the Papp B→A at 10 nM was 75.7 ×10⁻⁶ cm/s. For the same molecule, in data set [2], the half-life at 1 nM was above 2.17 h. The “CL (predicted human hepatic in vivo blood clearance)” value in data set [3] is 0 mL/min/kg.

In data set [1], `CS(=O)(=O)c1cc(C#N)ccc1[C@@H]1C2=C(CCCC2=O)N(c2cccc(C(F)(F)F)c2)C(=O)N1S(C)(=O)=O` [Example 68, (S)-3-(Methylsulfonyl)-4-(3-(methylsulfonyl)-2,5-dioxo-1-(3-(trifluoromethyl)phenyl)-1,2,3,4,5,6,7,8-octahydroquinazolin-4-yl)benzonitrile] displayed a solubility at 24 h of 57 µg/mL (≈ 100 µM). Besides, the half-life at 1 nM in data set [2] was above 2.17 h. The “CL (predicted human hepatic in vivo blood clearance)” value in data set [3] is 0 mL/min/kg.

The molecule `CS(=O)(=O)c1cc(C#N)ccc1[C@@H]1C2=C(CCCC2=O)N(c2cccc(C(F)(F)F)c2)C(=O)N1C(N)=O` [Example 75, (S)-4-(4-Cyano-2-(methylsulfonyl)phenyl)-2,5-dioxo-1-(3-(trifluoromethyl)phenyl)-1,2,5,6,7,8-hexahydroquinazoline-3(4H)-carboxamide] displayed a solubility at 24 h in data set [1] of 79 µg/mL (≈ 148 µM). Besides, in data set [2], the half-life at 1 nM is above 2.17 h.

On to `CC(C)NC(=O)N1C(=O)N(c2cccc(C(F)(F)F)c2)C2=C(C(=O)CCC2)[C@H]1c1ccc(C#N)cc1S(C)(=O)=O` [Example 75.3], for which, in data set [1], the Aqueous solubility was 9 µg/mL. Moreover, in data set [5] (Caco-2, PEBA/PEAB), the Efflux ratio was 3.7. In data set [5] (Caco-2, apical-to-basal, pH 7.2, 37° C.), this molecule had a PEAB of 22.8 ×10⁻⁶ cm/s. Moreover, the PEBA in data set [5] (Caco-2, basal-to-apical, pH 7.2, 37° C.) was determined as 85.3 ×10⁻⁶ cm/s. Further, the “t1/2 INVITRO” value in data set [2] was above 2.17 h. In data set [3], the “CL (predicted human hepatic in vivo blood clearance)” value was 0 mL/min/kg.

As for `CC(C)(CO)NC(=O)N1C(=O)N(c2cccc(C(F)(F)F)c2)C2=C(C(=O)CCC2)[C@H]1c1ccc(C#N)cc1S(C)(=O)=O` [Example 75.13], in data set [6], the IC50 (in general, the midpoint of a concentration-inhibition curve) was below 1 nM.

In the case of `CC(C)(O)CCNC(=O)N1C(=O)N(c2cccc(C(F)(F)F)c2)C2=C(C(=O)CCC2)[C@H]1c1ccc(C#N)cc1S(C)(=O)=O` [Example 75.19], in data set [6], the IC50 was below 1 nM.
